Details of series [1]: method as in PMID 34816382. The settings on record: cited from earlier work.
Details of series [2]: method as in PMID 34816382. As to conditions: cited from earlier work. This is another data set of the same source.
A short description of series [3]: Cell viability assay (alamarBlue). In kind it is cell-based, human. The settings on record: human, RD cells. The method, then:
(§1) Firstly, we performed cell viability assay to evaluate the cytotoxicity profile of the 19 hits. Cells seeded overnight were treated with the hit compounds at 10 µM. […] Anti-EV-A71 activity of AGP-253 had been illustrated and discussed previously. We were particularly interested in ZAF-46 and ZAF-47 as they belonged to the same series bearing novel 14-quinolinoxy and 17-hydro-8,9-olefin modifications (Figure 2b) that could potentially open up new targets for EV-A71 therapeutics. Additional cell viability assays were performed for ZAF-46 and ZAF-47 at different concentrations to identify the low cytotoxic concentrations for downstream post-treatment assays. For post-treatment assays, cells seeded overnight were infected with EV-A71 and subsequently treated with ZAF-46 and ZAF-47 at different concentrations. […] Treatment with ZAF-46 led to 1.4 log reduction at 10 µM and 2.4 log reduction at 20 µM (Figure 2c) while treatment with ZAF-47 led to 0.8 log reduction at 5 µM, 1.1 log reduction at 10 µM and 2.1 log reduction at 20 µM (Figure 2d). CC50 and IC50 for both compounds were determined and used to derive their SI (Table 2). ZAF-47 was selected for further downstream analysis due to its higher SI value which indicate higher pharmacological value for clinical use.
(§2) To determine the cytotoxicity profiles of the hits, cell viability assay was performed. Seeded 96-well plates, with 2 × 10^4 RD cells per well, were incubated overnight at 37 °C with 5% CO2. Different concentrations of drug hits, diluted by reduced serum DMEM, were used to treat the seeded cells for 12 h at 37 °C with 5% CO2. Reduced serum DMEM, was employed as the negative control and 0.1% DMSO as the vehicle control for this step. Subsequently, the supernatant was replaced with alamarBlue^TM Cell Viability Reagent (Thermo Fisher Scientific, Waltham, MA, USA) (100 µL), diluted 10-fold in reduced serum DMEM, and incubated for 3 h at 37 °C with 5% CO2. Fluorescence intensity in each well was measured at 570 nm excitation wavelength and 600 nm emission wavelength in each well by the Infinite^TM 200 series microplate reader (Tecan, Männedorf, Switzerland) and normaliszd with the negative control to determine the relative cell viability.

A further series relates to RD cells. As to the kind of experiment: Cell viability assay (alamarBlue). Format: cell-based, human. The settings on record: 10 µM, 12 h. On the procedure:
as §1, §2

Series [4] relates to EV-A71. As to the kind of experiment: Immunofluorescence-based preliminary screen of EV-A71-infected RD cells. Format: cell-based, human enterovirus A71 (EV-A71) strain 41. As to conditions: EV-A71-infected RD cells (MOI = 1). The source says: The screening assay was built using an immunofluorescence approach that was previously established and validated, with DAPI-stained nuclei accounting for total cell count and FITC-stained EV-A71 accounting for infected cell count upon EV-A71 infection and compound treatment. Both cell counts would then be used to calculate percentage infection and percentage inhibition to identify for hits. Before the screening platform can be employed to screen for potential antivirals, its robustness has to be appraised. In this study, Z-factor was calculated to assess the robustness of the screening platform. Firstly, seeded RD cells were either infected with EV-A71 (Multiplicity of Infection of 1) or mock-infected with media. The cells were then fixed, stained and imaged 12 h post-infection (hpi). The IFA images were analyzed with the Cell Profiler software to determine the infection rate of each well. Between the virus-infected and mock-infected wells, a clear distinction in infection rates could be observed (Figure 1a). […] In this case, the Z-factor, measured at 0.818, was indicative of a highly robust screening platform for high-throughput screening. The constructed screening platform was then employed to screen the compound library made up of 344 chemically synthesized novel compounds analogous to andrographolide. The compounds were screened at 10 µM with IFA images taken and analyzed to identify for hits. Treatment with 0.1% DMSO was used as vehicle control.
Seeded 96-well plates (Corning Inc., Corning, NY, USA), with 2 × 10^4 RD cells per well, were incubated overnight at 37 °C with 5% CO2. The seeded cells were then infected with EV-A71 (50 µL per well, MOI = 1) for 1 h at 37 °C with 5% CO2. The EV-A71-infected cells were then treated with the compound library at a final concentration of 10 µM for 12 h at 37 °C with 5% CO2. Treatment with 0.1% DMSO was used as vehicle control. Following treatment, cells were fixed with 100 µL of methanol (Sinopharm Chemical, Shanghai, China) for 15 min at −20°C and rinsed with 100 µL of 1x PBS for three times before performing indirect immunofluorescence assay (IFA). Anti-EV-A71 VP2 1° antibodies, MAB979 (Merck Millipore, Burlington, VT, USA), diluted 500-fold in PBS, was incubated with the fixed cells for 1 h at 37 °C. Cells were then rinsed thrice with PBS and incubated with anti-mouse FITC 2° antibodies (Merck Millipore), diluted 200-fold in PBS, for 1 h at 37 °C. After which, the cells were rinsed thrice with PBS before staining with DAPI (Sigma-Aldrich) at room temperature for 15 min. Cells were then rinsed thrice and preserved in 100 µL of PBS before imaging with the Operetta High-Content Imaging System and the Harmony High-Content Imaging and Analysis Software (Perkin Elmer, Waltham, MA, USA). Images of stained cells were captured with the DAPI and FITC fluorescence filters, from a pre-determined central position of each well and processed with the Cell Profiler software. […] The percentage infection (PI) for each well was calculated using the formula: Infected cell count/Total cell count × 100%. The percentage inhibition for each well was calculated using the formula PI0− PI/PI0 × 100% where PI0 refers to the percentage infection of wells treated with the vehicle control while PI refers to the percentage infection of wells treated with the compounds.

The test system of series [5] is EV-A71. As to the kind of experiment: Post-treatment assay with viral plaque assay. In kind it is cell-based, human enterovirus A71 (EV-A71) strain 41. The settings on record: for reduction in viral titre: post-treatment, 12 hpi. On the procedure: as §1
To determine the inhibitory profiles of the hits, post treatment assay was performed. Seeded 24-well plates, with 1.5 × 10^5 RD cells per well, were incubated overnight at 37 °C with 5% CO2. The seeded cells were infected with EV-A71 (100 µL per well, MOI = 1) for 1 h at 37 °C with 5% CO2 and then rinsed with 1 mL of PBS twice. Different concentrations of the hits were used to treat the infected cells for 12 h at 37 °C with 5% CO2. At 12 hpi, the plates were frozen and thawed for 2 cycles (−80°C; 37 °C) before collection of supernatants to measure the viral titres via viral plaque assay.
Measurement of the viral titres from collected supernatants was derived from viral plaque assays. To do this, 24-well plates, seeded with 2.4 × 10^5 RD cells per well, were used in plaque assays for EV-A71, EV-D68, Echo7, CV-A6, CV-A16 and CV-A24 while 24-well plates, seeded with 1.2 × 10^5 Vero cells per well, were used in plaque assays for CV-B5. Seeded cells were incubated overnight at 37 °C with 5% CO2. Viral supernatants were diluted from 10^−1 to 10^−7 in reduced serum DMEM before infecting the cells with a volume of 100 µL for 1 h at 37 °C with 5% CO2 (33 °C instead for EV-D68). Cells were rinsed twice with PBS before overlaying with 1 mL of reduced serum DMEM containing 0.5% agarose (Vivantis, Shah Alam, Malaysia). Cells infected with Echo7 supernatants were incubated for 2 days, cells infected with CV-A24 and CV-B5 supernatants were incubated for 3 days and cells infected with EV-A71, CV-A6, CV-A16 and EV-D68 supernatants were incubated for 4 days for the formation of plaques. Subsequently, the cells were fixed and stained overnight with 4% paraformaldehyde and 1% crystal violet (Sigma-Aldrich). Subsequent formation of viral plaques was counted manually to quantify the viral titre in PFU/mL

Series [6] has as its system replication-competent EV-A71 RNA replicon. As to the kind of experiment: Nano-luciferase reporter assay, replication-competent replicon. Format: cell-based, human enterovirus A71 (EV-A71). The settings on record: RD cells, 12 h; ZAF-47 different concentrations, GuHCl 1 mM. The method, then: To identify specifically which of these two intrinsically linked processes that ZAF-47 inhibits, we transfected RD cells with EV-A71 RNA replicons that were either replication-competent or replication-defective and subsequently treated them with different concentrations of ZAF-47 for 12 h before detecting for luminescence. Both forms of replicons were previously established and validated. The replication-competent replicon is capable of self-replicating as it contains an intact 3D region that encodes for 3D polymerase (3D^pol) responsible for RNA replication (Figure 4c). […] In contrast, the replication-defective replicon contains a 3D region with 159 nucleotide deletion which would produce a non-functional 3D protein and impair RNA replication (Figure 4c). As such, cells containing the replication-defective replicon express luciferase upon IRES translation of the original replicons only. The transfected cells were also treated with negative control, DMSO and positive controls, guanidine hydrochloride (GuHCl) and cycloheximide (CHX), a RNA replication-specific inhibitor [50] and a general translation inhibitor [51] respectively.
Seeded 96-well plates, with 2 × 10^4 RD cells per well, were incubated overnight at 37 °C with 5% CO2. […]

Data on four molecules can be found in publication PMC8880313, “Discovery of Novel Andrographolide Derivatives as Antiviral Inhibitors against Human Enterovirus A71” (Pharmaceuticals, 2022).

As to `C=C1CC[C@@H]2[C@](C)(CO)[C@H](O)CC[C@@]2(C)[C@@H]1C/C=C1/C(=O)OC[C@H]1O` [andrographolide], the water solubility entry in series [1] was “low water solubility”. Also, the bioavailability entry in series [2] is “poor bioavailability”.

Turning to `CC(=O)OC[C@]1(C)[C@H](O)CC[C@@]2(C)C(C/C=C3/C(=O)OC[C@@H]3Oc3cccc4cccnc34)=C(C)CC[C@H]12` [ZAF-46, (14β)-(8′-Quinolinoxy)-9-dehydro-17-hydro-19-acetoxy-andrographolide], in series [3], the CC50 at 12 h amounted to 29.9 µM. In addition, the cytotoxicity result with RD cells is “low cytotoxicity”. Also, the “Nuclei Count” value in the series with EV-A71 [4] (10 µM, 12 h, 0.1% DMSO wells 998) is reported as 1037. Besides, the inhibition at 10 µM in the series with EV-A71 [4] (Enterovirus A, EVA71, 12 h, read-out: Inhibition Rate (%)) came to 96%. Moreover, the results for the “reduction in viral titre” value with EV-A71 [5] (10 µM) and with EV-A71 [5] (20 µM) were 1.4 log and 2.4 log, respectively. This molecule showed an IC50 in the series on EV-A71 [5] (Enterovirus A, EVA71, EV-A71-infected RD cells, MOI = 1, 12 h treatment, viral plaque assay) of 4.44 µM. Besides, in the series on EV-A71 [5] (SI = CC50/IC50), the “Selectivity Index (SI)” value came to 6.73.

With `CC1(CO)C(O)CCC2(C)C(CC=C3C(=O)OCC3Oc3ccc([N+](=O)[O-])cc3Cl)C3(CCC12)CO3` (stereo not drawn) [AGP-253, 14S-(2′-Chloro-4′-Nitrophenoxy)-8R/S, 17-Epoxy Andrographolide], the cytotoxicity entry in the series with RD cells was “low cytotoxicity”. The “Inhibition Rate (%)” value with EV-A71 [4] (10 µM, 12 h) is 98.91%.

For the molecule `Cl.N=C(N)N` [GuHCl, guanidine hydrochloride, reference compound], in series [6], the “luminescence, replication-competent replicon” value was “significant decrease in luminescence”.
